# How the values were obtained:
# [1] = target: T1, Human leukocyte elastase (HLE) (Homo sapiens, UniProt P08246); assay: Human leukocyte elastase assay; assay type: biochemical
# T1 construct: gift of R. Senior, Washington University
# T1 sequence (P08246 30-267): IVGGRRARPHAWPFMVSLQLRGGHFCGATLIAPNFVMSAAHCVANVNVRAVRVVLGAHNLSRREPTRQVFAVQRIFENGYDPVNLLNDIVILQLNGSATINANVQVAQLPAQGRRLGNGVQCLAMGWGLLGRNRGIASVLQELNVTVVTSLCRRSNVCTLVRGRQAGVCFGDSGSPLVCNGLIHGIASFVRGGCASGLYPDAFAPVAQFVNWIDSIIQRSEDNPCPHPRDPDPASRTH
# Experimental: Human leukocyte elastase (HLE) (gift of R. Senior, Washington University) was dissolved in saline at 1 mg/ml and further diluted 1/20 in assay buffer (0.2 M Tris, pH 8.0) before use. 10 μl of test compound in DMSO (or DMSO alone), 100 μl of assay buffer and 50 μl of enzyme were added to 96 well plates, mixed and pre-incubated for 30 minutes at ambient temperature. Reaction was initiated by addition of 40 μl of 2.5 mM methoxysuccinyl-Ala-Ala-Pro-Val-p-nitroanilide (Sigma; 25 mM in DMSO diluted 1/10 in assay buffer before use). The increase in absorbance at 405 nm was monitored for 10 minutes with a Biotek EL340 plate reader.
# [2] = tested on: HCMV engineered virus RC256; assay: microbe, parasite or virus in culture; assay type: cell-based, human cytomegalovirus; conditions: Human betaherpesvirus 5, Fibroblast, read-out: Antiviral Activity RC256, first value (EC50)
# [3] = @ 100 (concentration unit not given)
# [4] = @ 10 (concentration unit not given)
# [5] = @ 1 (concentration unit not given)
Compound,"HLE, % @ concentration [1, 3]",EC50 [2],"HLE, % @ concentration [1, 4]","HLE, % @ concentration ([1]; @ 12.5 (concentration unit not given))","HLE, % @ concentration [1, 5]"
"Cc1c(NC(=O)OC(C)(C)C)ccc2nc(N[C@@H](C)C(=O)OC(C)(C)C)oc(=O)c12 [Example 6, N-[6-[[(1,1-Dimethylethoxy]carbonyl]amino]-5-methyl-4-oxo-4H-3,1-benzoxazin-2-yl]-L-alanine, 1,1-dimethylethyl Ester]",29% @ 100,> 100 µM,–,–,–
"COC(=O)[C@H](Cc1ccc(OC)cc1)Nc1nc2ccc(NC(=O)OC(C)(C)C)c(C)c2c(=O)o1 [Example 6c, N-[6-[[(1,1-Dimethylethoxy)carbonyl]amino]-5-methyl-4-oxo-4H-3,1-benzoxazin-2-yl]-O-methyl-L-tyrosine, methyl ester]",29% @ 100,59 µM,–,–,–
"COc1ccc(C[C@H](Nc2nc3ccc(NC(=O)OC(C)(C)C)c(C)c3c(=O)o2)C(=O)N(C)Cc2ccccc2)cc1 [Example 6dd, 1,1-Dimethylethyl[2-[[1S-[(4-methoxyphenyl)methyl]-2-[methyl(phenylmethyl)amino]-2-oxoethyl]amino]-5-methyl-4-oxo-4H-3,1-benzoxazin-6-yl]carbamate]",–,18 µM,42% @ 10,–,–
"Cc1c(NC(=O)OC(C)(C)C)ccc2nc(N[C@@H](Cc3ccc(OCCN4CCCC4)cc3)C(=O)N(C)Cc3ccccc3)oc(=O)c12 [Example 6ff, 1,1-Dimethylethyl[5-methyl-2-[[2-[methyl(phenylmethyl)amino]-2-oxo-1S-[[4-[2-(1-pyrrolidinyl)ethoxy]phenyl]methyl]ethyl]amino]-4-oxo-4H-3,1-benzoxazin-6-yl]carbamate]",75% @ 100,50 µM,–,–,–
"Cc1c(NC(=O)OC(C)(C)C)ccc2nc(N[C@@H](C)c3ccccc3)oc(=O)c12 [Example 6m, 6-[[(1,1-Dimethylethoxy)carbonyl]amino]-5-methyl-2-[[(1S)-phenylethyl]amino]-4H-3,1-benzoxazin-4-one]",82% @ 100,50 µM,–,–,–
"COC(=O)[C@H](CCS(C)(=O)=O)Nc1nc2ccc(NC(=O)OC(C)(C)C)c(C)c2c(=O)o1 [Example 6u, N-[6-[[(1,1-Dimethylethoxy)carbonyl]amino]-5-methyl-4-oxo-4H-3,1-benzoxazin-2-yl]-L-methionine sulfone, methyl ester]",29% @ 100,100 µM,–,–,–
"COC(=O)C1(Nc2nc3ccc(NC(=O)OC(C)(C)C)c(C)c3c(=O)o2)CC1 [Example 6x, N-[6-[[(1,1-Dimethylethoxy)carbonyl]amino]-5-methyl-4-oxo-4H-3,1-benzoxazin-2-yl]-1-cyclopropanecarboxylic acid, methyl ester]",–,> 100 µM,25% @ 10,–,–
Cc1c(NC(=O)OC(C)(C)C)ccc2nc(N[C@H]3CCN(c4ccc(C#N)cc4)C3=O)oc(=O)c12 [Example 6y],–,67 µM,25% @ 10,–,–
"COc1ccc(C[C@H](Nc2nc3ccc(CNC(=O)OC(C)(C)C)c(C)c3c(=O)o2)C(=O)N2CCCC2)cc1 [Example 7g, 1,1-Dimethylethyl[[2-[[1S-[(4-methoxyphenyl)methyl]-2-oxo-2-(1-pyrrolidinyl)ethyl]amino]-5-methyl-4-oxo-4H-3,1-benzoxazin-6-yl]methyl]carbamate]",–,20 µM,39% @ 10,–,–
"Cc1c(CNC(=O)OC(C)(C)C)ccc2nc(N[C@@H](Cc3ccccc3)C(=O)N(C)Cc3ccccc3)oc(=O)c12 [Example 7j, 1,1-Dimethylethyl[[5-methyl-2-[[2-[methyl(phenylmethyl)amino]-2-oxo-1S-(phenylmethyl)ethyl]amino]-4-oxo-4H-3,1-benzoxazin-6-yl]methyl]carbamate]",–,14 µM,31% @ 10,–,–
"Cc1c(CNC(=O)OC(C)(C)C)ccc2nc(N[C@@H](Cc3ccccc3)C(=O)N(C)c3ccccc3)oc(=O)c12 [Example 7m, 1,1-Dimethylethyl([5-methyl-2-[[2-(methylphenylamino)-2-oxo-1S-(phenylmethyl)ethyl]amino]-5-methyl-4-oxo-4H-3,1-benzoxazin-6-yl]methyl]carbamate]",–,5.2 µM,55% @ 10,–,–
CCN(C(=O)[C@H](Cc1ccccc1)Nc1nc2ccc(CNC(=O)OC(C)(C)C)c(C)c2c(=O)o1)c1ccccc1 [Example 7n],–,16 µM,16% @ 10,–,–
"CCN(Cc1ccccc1)C(=O)[C@H](Cc1ccc(OC)cc1)Nc1nc2ccc(CNC(=O)OC(C)(C)C)c(C)c2c(=O)o1 [Example 7o, 1,1-Dimethylethyl[[2-[[2-[ethyl(phenylmethyl)amino]-1S-[(4-methoxyphenyl)methyl]-2-oxoethyl]amino]-5-methyl-4-oxo-4H-3,1-benzoxazin-6-yl]methyl]carbamate]",–,24 µM,–,42% @ 12.5,–
"Cc1c(CNC(=O)OC(C)(C)C)ccc2nc(N[C@@H](Cc3ccc(Cl)cc3)C(=O)N(C)Cc3ccccc3)oc(=O)c12 [Example 7p, 1,1-Dimethylethyl[[2-[[1S-[(4-chlorophenyl)methyl]-2-[methyl(phenylmethyl)amino]-2-oxoethyl]amino]-5-methyl-4-oxo-4H-3,1-benzoxazin-6-yl]methyl]carbamate]",–,20 µM,–,–,42% @ 1
"COc1ccc(C[C@H](Nc2nc3ccc(CNC(=O)OC(C)(C)C)c(C)c3c(=O)o2)C(=O)N(C)CCc2ccccc2)cc1 [Example 7q, 1,1-Dimethylethyl[[2-[[1S-[(4-methoxyphenyl)methyl]-2-[methyl(2-phenylethyl)amino]-2-oxoethyl]amino]-5-methyl-4-oxo-4H-3,1-benzoxazin-6-yl]methyl]carbamate]",–,22 µM,–,–,39% @ 1
"COc1ccc(C[C@H](Nc2nc3ccc(CNC(=O)OC(C)(C)C)c(C)c3c(=O)o2)C(=O)N(C)c2ccccc2)cc1 [Example 7t, 1,1-Dimethylethyl[[2-[[1S-[(4-methoxyphenyl)methyl]-2-(methylphenylamino)-2-oxoethyl]amino]-5-methyl-4-oxo-4H-3,1-benzoxazin-6-yl]methyl]carbamate]",–,18 µM,20% @ 10,–,–
"CCN(C(=O)[C@H](Cc1ccc(OC)cc1)Nc1nc2ccc(CNC(=O)OC(C)(C)C)c(C)c2c(=O)o1)c1ccccc1 [Example 7u, 1,1-Dimethylethyl[[2-[[2-(ethylphenylamino)-1S-[(4-methoxyphenyl)methyl]-2-oxoethyl]amino]-5-methyl-4-oxo-4H-3,1-benzoxazin-6-yl]methyl]carbamate]",–,35 µM,75% @ 10,–,–
"Cc1c(CNC(=O)OC(C)(C)C)ccc2nc(N[C@@H](Cc3ccccc3)C(=O)N(C)CCc3ccccc3)oc(=O)c12 [Example 7v, 1,1-Dimethylethyl[[5-methyl-2-[[2-[methyl(2-phenylethyl)amino]-2-oxo-1S-(phenylmethyl)ethyl]amino]-4-oxo-4H-3,1-benzoxazin-6-yl]methyl]carbamate]",–,14 µM,53% @ 10,–,–
"Cc1c(CNC(=O)OCc2ccccc2)ccc2nc(N[C@@H](Cc3ccccc3)C(=O)N(C)CCc3ccccc3)oc(=O)c12 [Example 9dd, Phenylmethyl[[5-methyl-2-[[2-[methyl(2-phenylethyl)amino]-2-oxo-1S-(phenylmethyl)ethyl]amino]-4-oxo-3,1-benzoxazin-6-yl]methyl]carbamate]",–,45 µM,78% @ 10,–,–
"CCOC(=O)NCc1ccc2nc(N[C@@H](Cc3ccc(OC)cc3)C(=O)N(C)Cc3ccccc3)oc(=O)c2c1C [Example 9g, Ethyl[[2-[[1S-[(4-methoxyphenyl)methyl]-2-[methyl(phenylmethyl)amino]-2-oxoethyl]amino]-5-methyl-4-oxo-4H-3,1-benzoxazin-6-yl]methyl]carbamate]",–,15 µM,27% @ 10,–,–
"COc1ccc(C[C@H](Nc2nc3ccc(CNC(=O)OCC(C)C)c(C)c3c(=O)o2)C(=O)N(C)Cc2ccccc2)cc1 [Example 9h, 2-Methylpropyl[[2-[[1S-[(4-methoxyphenyl)methyl]-2-[methyl(phenylmethyl)amino]-2-oxoethyl]amino]-5-methyl-4-oxo-4H-3,1-benzoxazin-6-yl]methyl]carbamate]",–,14 µM,45% @ 10,–,–
"CCOC(=O)NCc1ccc2nc(N[C@@H](Cc3ccccc3)C(=O)N(C)Cc3ccccc3)oc(=O)c2c1C [Example 9k, Ethyl[[5-methyl-2-[[2-[methyl(phenylmethyl)amino]-2-oxo-1S-(phenylmethyl)ethyl]amino]-4-oxo-4H-3,1-benzoxazin-6-yl]methyl]carbamate]",–,11 µM,29% @ 10,–,–
"Cc1c(CNC(=O)OC2CCCC2)ccc2nc(N[C@@H](Cc3ccccc3)C(=O)N(C)Cc3ccccc3)oc(=O)c12 [Example 18f, Cyclopentyl[[5-methyl-2-[[2-[methyl(phenylmethyl)amino]-2-oxo-1S-(phenylmethyl)ethyl]amino]-4-oxo-4H-3,1-benzoxazin-6-yl]methyl]carbamate]",–,–,–,–,59% @ 1
